This note sets out measurements from patent US12110288B2, “MASP-2 inhibitors and methods of use” (Omeros Corporation, priority 2019, dated 2024).

This assay has as its target T1, MASP-2 (CCP1-CCP2-SP) (Homo sapiens, UniProt O00187).
T1 construct: 15 μL of Enzyme MASP-2 (CCP1-CCP2-SP) in Assay Buffer
As to the kind of experiment: Enzymatic Assay for MASP-2. Conditions: fluorogenic substrate based on C2 cleavage site, room temperature, 20 mM HEPES pH 7.4. Format: biochemical. On the procedure:
Enzymatic Assay for MASP-2
The MASP-2 assay utilizes a fluorogenic substrate, based on the cleavage site for its natural substrate C2. The assay is run at room temperature in an assay buffer containing 20 mM HEPES, pH 7.4, 140 mM NaCl and 0.1% Tween 20. Assay parameters are adjusted such that the assay is linear with respect to time, enzyme, and substrate concentrations. Under these optimized assays conditions, IC50 values are equivalent to Ki values, except in a few cases of “tight binding” inhibitors. Cases of “tight binding” or possible “slow binding” inhibitors are handled by the methods described in Copeland R. A. (2013) Evaluation of Enzyme Inhibitors in Drug Discovery. 2nd Ed., John Wiley and Sons, Inc., Chapters 5-7.
The MASP-2 assay protocol is carried out as follows. Test compounds are serially diluted in DMSO and then 100 nL of each dilution is transferred to the assay plate(s). 10 μL of Assay Buffer is added, followed by 15 μL of Enzyme MASP-2 (CCP1-CCP2-SP) in Assay Buffer. 15 μL of Substrate in Assay Buffer is then added and mixed to start the reactions. After 20 min at room temperature, 15 μL of a stop solution (0.1 M acetic acid) is added, mixed and the plates are read on a SpectraMax i3x Microplate Reader and exported as Excel files. Each assay plate included a “no inhibitor” (DMSO Only) control, a “no enzyme” control and a reference inhibitor control. % Activity values=100*(average test comp. fluorescence−average “no enzyme” fluorescence)/(average “DMSO only” fluorescence−average “no enzyme” fluorescence). IC50 and Ki values are very reproducible, falling well within ±2-fold.

Structures can show the parent of a compound that is named as a salt.

T1 sequence (O00187 445-686 limits assumed): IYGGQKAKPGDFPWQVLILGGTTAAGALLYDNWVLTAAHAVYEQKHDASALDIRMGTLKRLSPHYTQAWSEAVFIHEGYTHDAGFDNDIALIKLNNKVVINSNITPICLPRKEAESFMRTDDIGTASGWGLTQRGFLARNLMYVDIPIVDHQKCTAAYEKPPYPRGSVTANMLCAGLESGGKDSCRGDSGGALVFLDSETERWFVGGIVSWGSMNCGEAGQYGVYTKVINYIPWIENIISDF
T1 sequence (O00187 298-444 partner limits assumed): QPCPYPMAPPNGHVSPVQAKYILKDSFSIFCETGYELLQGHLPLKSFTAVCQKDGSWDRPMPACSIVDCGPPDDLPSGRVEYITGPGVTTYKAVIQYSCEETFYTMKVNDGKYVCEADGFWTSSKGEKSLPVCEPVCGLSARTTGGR

Molecule `Cc1nc(N)ccc1CNC(=O)Cn1c(C)ncc(NCCc2ccccc2)c1=O` [Compound 2, N-((6-Amino-2-Methylpyridin-3-yl)Methyl)-2-(2-Methyl-6-Oxo-5-(Phenethylamino)Pyrimidin-1(6H)-yl)Acetamide, Trifluoroacetate] yielded an inhibitory constant (Ki) of less than 500 nM.

Turning to `COc1ccc(CNc2ncc(-c3ccccc3)n(CC(=O)NCc3cc4cnc(C)cc4[nH]3)c2=O)cc1` [Compound 77, 2-(3-((4-Methoxybenzyl)amino)-2-oxo-6-phenylpyrazin-1(2H)-yl)-N-((6-methyl-1H-pyrrolo[3,2-c]pyridin-2-yl)methyl)acetamide trifluoroacetate], the inhibition constant (Ki) was less than 500 nM.

Molecule `COc1cccc(CNc2ncc(-c3ccccc3)n(CC(=O)NCc3cc4cnccc4[nH]3)c2=O)c1` [Compound 153, N-((1H-Pyrrolo[3,2-c]pyridin-2-yl)methyl)-2-(3-((3-methoxybenzyl)amino)-2-oxo-6-phenylpyrazin-1(2H)-yl)acetamide] gave a Ki of less than 500 nM.

`O=C(Cn1c(-c2ccccc2)cnc(NCCc2ccccc2)c1=O)NCc1cc2cnccc2[nH]1` [Compound 20, N-((1H-Pyrrolo[3,2-c]pyridin-2-yl)methyl)-2-(2-oxo-3-(phenethylamino)-6-phenylpyrazin-1(2H)-yl)acetamide trifluoroacetate] gave an inhibition constant Ki of less than 500 nM.

As to `O=C(Cn1c(-c2cnn(C3COC3)c2)cnc(NCCc2ccccc2)c1=O)NCc1cc2cnccc2[nH]1` [Compound 90, N-((1H-pyrrolo[3,2-c]pyridin-2-yl)methyl)-2-(6-(1-(oxetan-3-yl)-1H-pyrazol-4-yl)-2-oxo-3-(phenethylamino)pyrazin-1(2H)-yl)acetamide trifluoroacetate], the Ki is less than 500 nM.

`Cc1nc(N)ccc1CNC(=O)Cn1c(-c2cccc3cc[nH]c23)cnc(NCCc2ccccc2)c1=O` [Compound 85] had an inhibition constant Ki of less than 500 nM.

In turn, `O=C(Cn1c(-c2ccccc2)cnc(NCC2(c3cccc(Cl)c3)CC2)c1=O)NCc1cc2cnccc2[nH]1` [Compound 71, N-((1H-Pyrrolo[3,2-c]pyridin-2-yl)methyl)-2-(3-(((1-(3-chlorophenyl)cyclopropyl)methyl)amino)-2-oxo-6-phenylpyrazin-1(2H)-yl)acetamide trifluoroacetate] displayed a Ki of less than 500 nM.

The molecule `O=C(Cn1c(-c2cccc(C3(O)COC3)c2)cnc(NCCc2ccccc2)c1=O)NCc1cc2cnccc2[nH]1` [Compound 99, N-((1H-Pyrrolo[3,2-c]pyridin-2-yl)methyl)-2-(6-(3-(3-hydroxyoxetan-3-yl)phenyl)-2-oxo-3-(phenethylamino)pyrazin-1(2H)-yl)acetamide] showed a Ki of less than 500 nM.

Molecule `O=C(Cn1c(-c2ccccc2)cnc(N2CC[C@H](c3ccccc3)C2)c1=O)NCc1cc2cnccc2[nH]1` [Compound 143, (R)-N-((1H-Pyrrolo[3,2-c]pyridin-2-yl)methyl)-2-(2-oxo-6-phenyl-3-(3-phenylpyrrolidin-l-yl)pyrazin-1(2H)-yl)acetamide] returned a Ki of less than 500 nM.

With `COC(=O)Cc1cccc(-c2cnc(NCCc3ccccc3)c(=O)n2CC(=O)NCc2cc3cnccc3[nH]2)c1` [Compound 93, Methyl 2-(3-(1-(2(((1H-pyrrolo[3,2-c]pyridin-2-yl)methyl)amino)-2-oxoethyl)-6-oxo-5-(phenethylamino)-1,6-dihydropyrazin-2-yl)phenyl)acetate trifluoroacetate], the Ki is less than 500 nM.

`Cn1cc(-c2cnc(NCC3(c4ccc(Cl)cc4)CC3)c(=O)n2CC(=O)NCc2cc3cnccc3[nH]2)cn1` [Compound 65, N-((1H-Pyrrolo[3,2-c]Pyridin-2-yl)Methyl)-2-(3-(((1-(4-Chlorophenyl)Cyclopropyl)Methyl)Amino)-6-(1-Methyl-1H-Pyrazol-4-yl)-2-Oxopyrazin-1(2H)-yl)Acetamide Trifluoroacetate]: the Ki is less than 500 nM.

Turning to `Cc1nc(N)ccc1CNC(=O)Cn1c(-c2ccc(N)cc2)cnc(NCCc2ccccc2)c1=O` [Compound 31, N-((6-Amino-2-Methylpyridin-3-yl)Methyl)-2-(6-(4-Aminophenyl)-2-Oxo-3-(Phenyethylamino)Pyrazin-1-(2H)-yl)Acetamide], the Ki is less than 500 nM.

Molecule `Cc1nc(N)ccc1CNC(=O)Cn1c(=O)c(NCCc2ccccc2)cn(C)c1=O` [Compound 34, N-((6-Amino-2-Methylpyridin-3-yl)Methyl)-2-(3-Methyl-2,6-Dioxo-5-(Phenethylamino)-3,6-Dihydropyrimidin-1(2H)-yl)Acetamide] yielded a Ki of less than 500 nM.

`O=C(Cn1c(Br)cnc(NCCc2ccccc2)c1=O)NCc1cc2cnccc2[nH]1` [Compound 109, N-((1H-Pyrrolo[3,2-c]Pyridin-2-yl)Methyl)-2-(6-Bromo-2-Oxo-3-(Phenethylamino)Pyrazin-1(2H)-yl)Acetamide]: the Ki is less than 500 nM.

As for `O=C(Cn1c(-c2cccc(CO)c2)cnc(NCCc2ccccc2)c1=O)NCc1cc2cnccc2[nH]1` [Compound 88, N-((1H-Pyrrolo[3,2-c]pyridin-2-yl)methyl)-2-(6-(3-(hydroxymethyl)phenyl)-2-oxo-3-(phenethylamino)pyrazin-1(2H)-yl)acetamide trifluoroacetate], the Ki was less than 500 nM.

For `Cc1nc(N)ccc1CNC(=O)Cn1c(-c2cnn(C)c2)cnc(NCCc2ccccc2)c1=O` [Compound 25, N-((6-Amino-2-methylpyridin-3-yl)methyl)-2-(6-(1-methyl-1H-pyrazol-4-yl)-2-oxo-3-(phenethylamino)pyrazin-1(2H)-yl)acetamide], the inhibitory constant (Ki) was less than 500 nM.

Molecule `Cc1ccccc1CCNc1ncc(-c2ccccc2)n(CC(=O)NCc2cc3cnccc3[nH]2)c1=O` [Compound 135, N-((1H-Pyrrolo[3,2-c]pyridin-2-yl)methyl)-2-(3-((2-methylphenethyl)amino)-2-oxo-6-phenylpyrazin-1(2H)-yl)acetamide] gave a Ki of less than 500 nM.

`COCCCCNc1ncc(-c2ccccc2)n(CC(=O)NCc2cc3cnccc3[nH]2)c1=O` [Compound 124, N-((1H-Pyrrolo[3,2-c]pyridin-2-yl)methyl)-2-(3-((4-methoxybutyl)amino)-2-oxo-6-phenylpyrazin-1(2H)-yl)acetamide trifluoroacetate] showed a Ki of less than 500 nM.

`O=C(Cn1c(-c2ccccc2)cnc(NC2(c3ccc(F)c(F)c3)CC2)c1=O)NCc1cc2cnccc2[nH]1` [Compound 74, N-((1H-Pyrrolo[3,2-c]pyridin-2-yl)methyl)-2-(3-((1-(3,4-difluorophenyl)cyclopropyl)amino)-2-oxo-6-phenylpyrazin-1(2H)-yl)acetamide trifluoroacetate] yielded a Ki of less than 500 nM.

In the case of `O=C(Cn1c(-c2cnn3c2CCC3)cnc(NCCc2ccccc2)c1=O)NCc1cc2cnccc2[nH]1` [Compound 115, N-((1H-Pyrrolo[3,2-c]pyridin-2-yl)methyl)-2-(6-(5,6-dihydro-4H-pyrrolo[1,2-b]pyrazol-3-yl)-2-oxo-3-(phenethylamino)pyrazin-1(2H)-yl)acetamide], the inhibition constant Ki is less than 500 nM.

In turn, `Cc1nc(N)ccc1CNC(=O)Cn1c(-c2cncnc2)cnc(NCCc2ccccc2)c1=O` [Compound 23, N-((6-Amino-2-methylpyridin-3-yl)methyl)-2-(2-oxo-3-(phenethylamino)-6-(pyrimidin-5-yl)pyrazin-1(2H)-yl)acetamide] yielded an inhibition constant Ki of less than 500 nM.

A word on the Ki: it is a measure of affinity in units of concentration, obtained from inhibition or displacement.
